Like-named read-outs stand apart in the source and are kept apart here.
Legend:
MDRAB = assay: MIC determination, microdilution broth method; type: cell-based, Acinetobacter baumannii
Description: Determination methods of a Minimal Inhibitory Concentration (MIC) and a Minimum Bactericidal Concentration (MBC) of a test product: the MIC and the MBC of the Pithecellobium clypearia Benth water or ethanol extract to the MDRAB are determined by a microdilution broth method. And it is operated by referring to the microdilution broth method recommended by National Committee for Clinical Laboratory Standards (NCCLS).

ATCC27853 = assay: MIC determination, control strain; type: cell-based
Description: Determination methods of a Minimal Inhibitory Concentration (MIC) and a Minimum Bactericidal Concentration (MBC) of a test product: the MIC and the MBC of the Pithecellobium clypearia Benth water or ethanol extract to the MDRAB are determined by a microdilution broth method.

MDRPA = assay: Checkerboard assay (combined-use MIC, FIC); type: cell-based, Pseudomonas aeruginosa; conditions: for FIC, all strains / MIC50 of the antibiotic after combined use / MIC90 of the antibiotic after combined use / reduction of the antibiotic's MIC50 vs single use / reduction of the antibiotic's MIC90 vs single use / share of strains with FIC ≤ 0.5: 20 MDRPAs
Procedure, shortened: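 Checkerboard combinations of S20b and antibiotic run per NCCLS method against ESBL E. coli, MDR A. baumannii and MDR P. aeruginosa.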

[1] = single use, 20 MDRABs, EA=10% ethanol extract
[2] = single use, 20 MDRABs, EA=water extract
[3] = single use, 20 MDRABs, section of the 95% ethanol extract
[4] = antibiotic with 10% ethanol extract
[5] = antibiotic with 60% ethanol extract
[6] = antibiotic with 95% ethanol extract
[7] = antibiotic with EA (water extract)

CC(C)(O/N=C(\C(=O)N[C@@H]1C(=O)N2C(C(=O)[O-])=C(C[n+]3ccccc3)CS[C@H]12)c1csc(N)n1)C(=O)O [CAZ, Ceftazidime]
32 µg/mL: combined-use MIC (MDRPA; strain P5, EA (P. clypearia 10% ethanol extract) combined with CAZ) | combined-use MIC (MDRPA; strain P5, EA (P. clypearia water extract) combined with CAZ) | combined-use MIC (MDRPA; strain P7, EA (P. clypearia 10% ethanol extract) combined with CAZ) | combined-use MIC (MDRPA; strain P7, EA (P. clypearia water extract) combined with CAZ) | combined-use MIC (MDRPA; strain P18, EA (P. clypearia 10% ethanol extract) combined with CAZ)
40%: share of strains with FIC ≤ 0.5 (MDRPA; [5])
16 µg/mL: MIC50 of the antibiotic after combined use (MDRPA; [4]) | MIC50 of the antibiotic after combined use (MDRPA; [6]) | combined-use MIC (MDRPA; strain P1, EA (P. clypearia 10% ethanol extract) combined with CAZ) | combined-use MIC (MDRPA; strain P2, EA (P. clypearia 10% ethanol extract) combined with CAZ) | combined-use MIC (MDRPA; strain P2, EA (P. clypearia water extract) combined with CAZ) | combined-use MIC (MDRPA; strain P18, EA (P. clypearia water extract) combined with CAZ)
> 512 µg/mL: MIC (MDRAB; Acinetobacter baumannii, strain A6, EA=60% ethanol extract, read-out: MIC) | MIC (MDRAB; Acinetobacter baumannii, strain A6, EA=95% ethanol extract, read-out: MIC) | MIC (MDRAB; Acinetobacter baumannii, strain A6, single use, EA=10% ethanol extract, read-out: MIC) | MIC (MDRAB; Acinetobacter baumannii, strain A6, single use, EA=water extract, read-out: MIC) | MIC (MDRAB; Acinetobacter baumannii, strain A7, EA=60% ethanol extract, read-out: MIC) | MIC (MDRAB; Acinetobacter baumannii, strain A7, EA=95% ethanol extract, read-out: MIC) | MIC (MDRAB; Acinetobacter baumannii, strain A7, single use, EA=10% ethanol extract, read-out: MIC) | MIC (MDRAB; Acinetobacter baumannii, strain A7, single use, EA=water extract, read-out: MIC)
35%: share of strains with FIC ≤ 0.5 (MDRPA; [4])
≤ 2: FIC, all strains (MDRPA; [4]) | FIC, all strains (MDRPA; [5]) | FIC, all strains (MDRPA; [6]) | FIC, all strains (MDRPA; [7])
8 µg/mL: MIC50 of the antibiotic after combined use (MDRPA; [5]) | MIC50 of the antibiotic after combined use (MDRPA; [7]) | combined-use MIC (MDRPA; strain P1, EA (P. clypearia water extract) combined with CAZ) | combined-use MIC (MDRPA; strain P14, EA (P. clypearia 10% ethanol extract) combined with CAZ) | combined-use MIC (MDRPA; strain P14, EA (P. clypearia water extract) combined with CAZ) | combined-use MIC (MDRPA; strain P16, EA (P. clypearia 10% ethanol extract) combined with CAZ) | combined-use MIC (MDRPA; strain P16, EA (P. clypearia water extract) combined with CAZ) | combined-use MIC (MDRPA; strain P17, EA (P. clypearia 10% ethanol extract) combined with CAZ) | combined-use MIC (MDRPA; strain P17, EA (P. clypearia water extract) combined with CAZ)
1024 µg/mL: MIC (MDRAB; strain A6, single use, EA=10% ethanol extract) | MIC (MDRAB; strain A6, single use, EA=water extract) | MIC (MDRAB; strain A7, single use, EA=10% ethanol extract) | MIC (MDRAB; strain A7, single use, EA=water extract)
50%: reduction of the antibiotic's MIC50 vs single use (MDRPA; [4]) | reduction of the antibiotic's MIC50 vs single use (MDRPA; [6]) | reduction of the antibiotic's MIC90 vs single use (MDRPA; [6])
128 µg/mL: MIC (MDRAB; Acinetobacter baumannii, strain A1, EA=P. clypearia 95% ethanol extract, read-out: single-use MIC) | MIC90 of the antibiotic after combined use (MDRPA; [6]) | combined-use MIC (MDRPA; strain P15, EA (P. clypearia 10% ethanol extract) combined with CAZ) | combined-use MIC (MDRPA; strain P15, EA (P. clypearia water extract) combined with CAZ)
64 µg/mL: MIC (MDRAB; Acinetobacter baumannii, strain A5, EA=60% ethanol extract, read-out: MIC) | MIC (MDRAB; Acinetobacter baumannii, strain A5, EA=95% ethanol extract, read-out: MIC) | MIC (MDRAB; Acinetobacter baumannii, strain A5, EA=P. clypearia 95% ethanol extract, read-out: single-use MIC) | MIC (MDRAB; Acinetobacter baumannii, strain A5, single use, EA=10% ethanol extract, read-out: MIC) | MIC (MDRAB; Acinetobacter baumannii, strain A5, single use, EA=water extract, read-out: MIC) | MIC90 of the antibiotic after combined use (MDRPA; [4]) | MIC90 of the antibiotic after combined use (MDRPA; [5]) | MIC90 of the antibiotic after combined use (MDRPA; [7]) | combined-use MIC (MDRPA; strain P4, EA (P. clypearia 10% ethanol extract) combined with CAZ) | combined-use MIC (MDRPA; strain P4, EA (P. clypearia water extract) combined with CAZ) | combined-use MIC (MDRPA; strain P8, EA (P. clypearia 10% ethanol extract) combined with CAZ) | combined-use MIC (MDRPA; strain P8, EA (P. clypearia water extract) combined with CAZ) | combined-use MIC (MDRPA; strain P20, EA (P. clypearia 10% ethanol extract) combined with CAZ) | combined-use MIC (MDRPA; strain P20, EA (P. clypearia water extract) combined with CAZ)
25%: share of strains with FIC ≤ 0.5 (MDRPA; [6])
75%: reduction of the antibiotic's MIC90 vs single use (MDRPA; [4]) | reduction of the antibiotic's MIC50 vs single use (MDRPA; [5]) | reduction of the antibiotic's MIC90 vs single use (MDRPA; [5]) | reduction of the antibiotic's MIC50 vs single use (MDRPA; [7]) | reduction of the antibiotic's MIC90 vs single use (MDRPA; [7])
45%: share of strains with FIC ≤ 0.5 (MDRPA; [7])
1 µg/mL: combined-use MIC (MDRPA; strain P11, EA (P. clypearia 10% ethanol extract) combined with CAZ) | combined-use MIC (MDRPA; strain P11, EA (P. clypearia water extract) combined with CAZ)
64 to 512 µg/mL: MIC Range (MDRAB; MDRABs, EA=60% ethanol extract) | MIC Range (MDRAB; MDRABs, EA=95% ethanol extract) | MIC Range (MDRAB; [1]) | MIC Range (MDRAB; [2])
512 µg/mL: MIC (MDRAB; Acinetobacter baumannii, strain A2, EA=P. clypearia 95% ethanol extract, read-out: single-use MIC) | MIC (MDRAB; Acinetobacter baumannii, strain A3, EA=P. clypearia 95% ethanol extract, read-out: single-use MIC) | MIC (MDRAB; Acinetobacter baumannii, strain A8, EA=P. clypearia 95% ethanol extract, read-out: single-use MIC) | MIC (MDRAB; Acinetobacter baumannii, strain A9, EA=P. clypearia 95% ethanol extract, read-out: single-use MIC) | MIC (MDRAB; Acinetobacter baumannii, strain A10, EA=P. clypearia 95% ethanol extract, read-out: single-use MIC) | MIC (MDRAB; Acinetobacter baumannii, strain A11, EA=P. clypearia 95% ethanol extract, read-out: single-use MIC) | MIC (MDRAB; Acinetobacter baumannii, strain A12, EA=P. clypearia 95% ethanol extract, read-out: single-use MIC) | MIC (MDRAB; Acinetobacter baumannii, strain A14, EA=P. clypearia 95% ethanol extract, read-out: single-use MIC) | MIC (MDRAB; Acinetobacter baumannii, strain A16, EA=P. clypearia 95% ethanol extract, read-out: single-use MIC) | MIC (MDRAB; Acinetobacter baumannii, strain A18, EA=P. clypearia 95% ethanol extract, read-out: single-use MIC) | MIC (MDRAB; Acinetobacter baumannii, strain A20, EA=P. clypearia 95% ethanol extract, read-out: single-use MIC) | MIC50 (MDRAB; Acinetobacter baumannii, single use, 20 MDRABs, section of the 60% ethanol extract, read-out: MIC50) | MIC90 (MDRAB; Acinetobacter baumannii, single use, 20 MDRABs, section of the 60% ethanol extract, read-out: MIC90) | MIC50 (MDRAB; MDRABs, EA=60% ethanol extract) | MIC90 (MDRAB; MDRABs, EA=60% ethanol extract) | MIC50 (MDRAB; MDRABs, EA=95% ethanol extract) | MIC90 (MDRAB; MDRABs, EA=95% ethanol extract) | MIC50 (MDRAB; [1]) | MIC90 (MDRAB; [1]) | MIC50 (MDRAB; [2]) | MIC90 (MDRAB; [2]) | MIC50 (MDRAB; [3]) | MIC90 (MDRAB; [3])
256 µg/mL: MIC (MDRAB; Acinetobacter baumannii, strain A4, EA=P. clypearia 95% ethanol extract, read-out: single-use MIC) | MIC (MDRAB; Acinetobacter baumannii, strain A13, EA=P. clypearia 95% ethanol extract, read-out: single-use MIC) | MIC (MDRAB; Acinetobacter baumannii, strain A15, EA=P. clypearia 95% ethanol extract, read-out: single-use MIC) | MIC (MDRAB; Acinetobacter baumannii, strain A17, EA=P. clypearia 95% ethanol extract, read-out: single-use MIC) | MIC (MDRAB; Acinetobacter baumannii, strain A19, EA=P. clypearia 95% ethanol extract, read-out: single-use MIC) | combined-use MIC (MDRPA; strain P6, EA (P. clypearia 10% ethanol extract) combined with CAZ) | combined-use MIC (MDRPA; strain P6, EA (P. clypearia water extract) combined with CAZ)
1020 µg/mL: MIC (MDRAB; Acinetobacter baumannii, strain A6, EA=P. clypearia 95% ethanol extract, read-out: single-use MIC) | MIC (MDRAB; Acinetobacter baumannii, strain A7, EA=P. clypearia 95% ethanol extract, read-out: single-use MIC)
4 µg/mL: MIC (ATCC27853; EA=10% ethanol extract, read-out: MIC) | MIC (ATCC27853; EA=60% ethanol extract, read-out: MIC) | MIC (ATCC27853; EA=95% ethanol extract, read-out: MIC) | MIC (ATCC27853; EA=P. clypearia 10% ethanol extract, read-out: MIC (single use)) | MIC (ATCC27853; EA=P. clypearia water extract, read-out: MIC (single use)) | MIC (ATCC27853; EA=water extract, read-out: MIC) | MIC (ATCC27853; single use, EA = 60% ethanol extract, read-out: MIC) | MIC (ATCC27853; single use, EA = 95% ethanol extract, read-out: MIC) | combined-use MIC (MDRPA; strain P9, EA (P. clypearia 10% ethanol extract) combined with CAZ) | combined-use MIC (MDRPA; strain P9, EA (P. clypearia water extract) combined with CAZ) | combined-use MIC (MDRPA; strain P13, EA (P. clypearia 10% ethanol extract) combined with CAZ) | combined-use MIC (MDRPA; strain P13, EA (P. clypearia water extract) combined with CAZ)
2 µg/mL: combined-use MIC (MDRPA; strain P3, EA (P. clypearia 10% ethanol extract) combined with CAZ) | combined-use MIC (MDRPA; strain P3, EA (P. clypearia water extract) combined with CAZ) | combined-use MIC (MDRPA; strain P10, EA (P. clypearia 10% ethanol extract) combined with CAZ) | combined-use MIC (MDRPA; strain P10, EA (P. clypearia water extract) combined with CAZ) | combined-use MIC (MDRPA; strain P12, EA (P. clypearia 10% ethanol extract) combined with CAZ) | combined-use MIC (MDRPA; strain P12, EA (P. clypearia water extract) combined with CAZ) | combined-use MIC (MDRPA; strain P19, EA (P. clypearia 10% ethanol extract) combined with CAZ) | combined-use MIC (MDRPA; strain P19, EA (P. clypearia water extract) combined with CAZ)

— patent publication US11793849B2, “Method of Chinese herbal medicine extract used for treating multiple diseases caused by drug resistant bacteria infection” (priority 2016, dated 2023)
